Patent US6881729B2, “Bile compound and method of controlling behavior of lampreys therewith” (Board of Trustees of Michigan State University, priority 2001, dated 2005)

Assays:
[1] = tested on: antibody against 3kPZS (polyclonal antiserum L286); assay: ELISA cross-reactivity of the antiserum; format: binding, rabbit
Method: Plates were coated with polyclonal goat anti-rabbit IgG (Sigma; product code R2004) by adding 120 μL of antibody diluted in 0.05 M potassium phosphate buffer, pH 7.4 to each well and incubating overnight at 4° C. The plates were blocked by addition of 100 μL of 3% BSA in 0.1 M potassium phosphate buffered saline and storage at 4° C. for at least 12 h.
Non-specific binding (NSB) and maximum binding (B0) were measured in separate wells. Water washings, extracts, or HPLC fractions were diluted 20 times in assay buffer and 100 μL added to wells in duplicate; 50 μL of the diluted enzyme label (1:2000) was added to all wells and 50 μL of primary antibody (1:500,000) was added to all but NSB wells. Plates were incubated for 2 h at room temperature in a humid chamber. Then, after rinsing three times with wash buffer, 200 μL Ellmans reagent (4.3 mg DTNB, and 4 mg acetyl thiocholine in 20 mL 0.02 M potassium phosphate buffer) was added to each well. The plates were sealed and incubated overnight at room temperature in a humid chamber.
To test the cross-reactivity of the antibody to structurally related compounds, serial dilutions of ACA, PZ, PZS, CA, 3kACA, and 3kPZ were assayed alongside the 3kPZS standard.

[2] = diethyl ether extraction from buffers of different pH; format: physicochemical; conditions: pH 4
Method: A trial was carried out in which a mixture of synthetic 3kPZS and 3kACA was dissolved in buffers of different pH and then extracted with diethyl ether. […] Based on this observation, an extract from 1 L of water that had been conditioned by a spermiating male was redissolved in 100 μL methanol and 900 μL of 0.05 M sodium acetate buffer, pH 4.0. This was extracted four times with 3 mL diethyl ether. The residue was then separated by HPLC as described above and the fractions assayed with the ELISA. Some of the extract which had not been treated with diethyl ether was treated in the same way. After these separations had been performed, standard synthetic 3kACA, 3kPZS and 3kPZ (200 μg each) were run on the column under identical conditions.

[3] = long-term storage of natural compound in ethanol; format: physicochemical; conditions: 1 mg/mL in ethanol at −20° C. for over one year
Excerpt: In Example 1, only a small supply of synthetic 3kPZS had been produced by enzymatic oxidation of the 3α-hydroxyl group of PZS. This restricted the number of comparisons that could be made between the natural and synthetic 3kPZS. This example completes these studies. This example confirms that both synthetic and natural 3kPZS have the same chromatographic properties and behave in the same way when treated with 3α-HSD and sulfatase. […] The reason for this has not been fully established. However, the natural compound that was used in this example had been stored at 1 mg/mL in ethanol at −20° C. for over one year, whereas the synthetic compound had been made up freshly. The possibility is that the sulfate group is unstable in long-term storage.

[4] = tested on: olfactory organs of adult females; assay: electro-olfactography (EOG); format: in vivo, sea lamprey
Excerpt: The response magnitude is expressed as the percentage of responses to 10^−5 M L-arginine, the standard odorant. Vertical bars, one standard deviation.

[5] = tested on: ovulated females; assay: two-choice maze behavioral test (preference and searching); format: in vivo, sea lamprey, Petromyzon marinus
Excerpt: Behavioral tests confirmed that the odor of spermiating males influences the distribution and locomotor activities of ripe females in a two-choice maize as follows. Animals were classified as spermiating males and ovulated females if milt and eggs, respectively, could be expressed by manual pressure, or otherwise as non-spermiating males and pre-ovulatory females, and used as either test subjects or odor donors in a flow through (0.07 m/s) maze (L 4.6 m×W 1.2 m) with plywood bottom, sides, and a partition in the middle which extended 2.4 m from the upstream end, and with plastic meshes blocking fish movement at both the upstream and downstream ends. Odor donors were held above the upstream mesh. Between 0700 and 1700 h, a single test subject was acclimated for 10 min in the maze, and its behavior video recorded for 20 min. Then, 5 lampreys (all of one sex and maturity) were introduced into the mesh chamber on a randomly chosen side, and behavior of test subjects recorded for another 20 min. When washings were used, a spermiating male was held in 10 L of water for four hours and the water introduced into the odor chamber at 75 mL/min. Naïve observers scored videotapes for the total time spent in each side before (Be and Bc) and after (Ae and Ac) odorant introduction. The scores were used to calculate an index of preference: I=(Ae/(Ae+Be))−(Ac/(Ac+Bc)). A similar index was computed for searching behaviors which involved pacing back and forth across the upstream barrier, increased swimming speed, and rapid beating of the tail.
When tested in a two-choice maze, ovulated females (but not males or pre-ovulatory females) spent more time in the compartment scented with washings from spermiating males (Table 1). There was no preference of ovulated females for washings of pre-spermiating males or females.
From this we estimated that in the two-choice maze experiments with live males, the pheromone reached a concentration between 0.1 and 0.2 ηM. Therefore, the converted PS was tested in the two-choice maze at a final concentration of 0.17 ηM.

[6] = weight for weight basis, compared with 3kPZS
[7] = ovulated females, final concentration of 0.17 ηM
[8] = ovulated females, flow-through maze, washings introduced at 75 mL/min, PP at final concentration of 0.17 ηM
[9] = ovulated females, searching behavior

Compound: C[C@H](CCC(=O)O)[C@H]1CC[C@H]2[C@@H]3[C@H](O)C[C@H]4CC(=O)CC[C@]4(C)[C@H]3C[C@H](O)[C@]12C [3kACA, 7α,12α-dihydroxy-5α-cholan-3-one-24-oic acid]
- cross-reaction with the antiserum ([1]; relative to 3kPZS standard): 100%
- cross-reaction with the antiserum [1, 6]: equally well
- extraction into the diethyl ether phase [2]: could be extracted into the diethyl ether phase

Compound: C[C@H](CCCO)[C@H]1CC[C@H]2[C@@H]3[C@H](O)C[C@H]4CC(=O)CC[C@]4(C)[C@H]3C[C@H](O)[C@]12C [3kPZ, 7α,12α,24-trihydroxy-5α-cholan-3-one]
- cross-reaction with the antiserum ([1]; relative to 3kPZS standard): 100%
- cross-reaction with the antiserum [1, 6]: equally well

Compound: CC(CCCOS(=O)(=O)O)C1CCC2C3C(O)CC4CC(=O)CCC4(C)C3CC(O)C12C (stereo not drawn) [3kPZS, 7α,12α,24-trihydroxy-5α-cholan-3-one-24-sulfate]
- stability in storage [3]: appeared to have broken down to 3kPZ
- olfactory stimulation by EOG ([4]; adult females): highly stimulatory
- detection threshold ([4]; worked out from release rate and EOG detection of male washings after dilution of 10^6 times): about 10^−12 molar
- level at which it attracts ovulated females ([5]; in words): sub-nanomolar
- searching behavior in the scented side [5, 7]: increased searching behavior
- time spent in the scented side [5, 7]: spent a longer time
- No. animals that spent more time on side that was: Scented [5, 8]: 8
- No. animals that spent more time on side that was: Unscented [5, 8]: 0
- No. animals that spent more time searching on side that was: Scented [5, 9]: 6
- No. animals that spent more time searching on side that was: Unscented [5, 9]: 0
- extraction into the diethyl ether phase [2]: not

Compound: C[C@H](CCCOS(=O)(=O)O)[C@H]1CC[C@H]2[C@@H]3[C@H](O)C[C@H]4C[C@H](O)CC[C@]4(C)[C@H]3C[C@H](O)[C@]12C [PZS, 3α,7α,12α,24-tetrahydroxy-5α-cholan-24-sulfate]
- cross-reaction with the antiserum ([1]; relative to 3kPZS standard): 1.6%
